From ChEMBL document CHEMBL5537135, “Novel antimicrobial peptides modified with fluorinated sulfono-γ-AA having high stability and targeting multidrug-resistant bacteria infections” (Eur J Med Chem, 2024)
Values after ≈ are worked out from the molar mass of the structure shown. Peptide text beside a SMILES is read from it. * marks the point of attachment. X6 = CC(C)C[C@@H](CN(CC(N)=O)S(=O)(=O)c1cc(C(F)(F)F)cc(C(F)(F)F)c1)N*

Experiments:
[1] = tested on: Pseudomonas aeruginosa; assay: Antimicrobial activity against multidrug-resistant Pseudomonas aeruginosa 124 assessed as inhibition of visible bacterial growth incubated for 18 hrs by broth-dilution method; type: functional
[2] = tested on: Staphylococcus aureus; assay: Antibacterial activity against antibiotics-resistant Staphylococcus aureus ATCC 33591 assessed as reduction in microbial growth; type: functional
[3] = tested on: Pseudomonas aeruginosa; assay: Antimicrobial activity against multidrug-resistant Pseudomonas aeruginosa 125 assessed as inhibition of visible bacterial growth incubated for 18 hrs by broth-dilution method; type: functional
[4] = tested on: Pseudomonas aeruginosa; assay: Antimicrobial activity against multidrug-resistant Pseudomonas aeruginosa 050 assessed as inhibition of visible bacterial growth incubated for 18 hrs by broth-dilution method; type: functional
[5] = tested on: Pseudomonas aeruginosa; assay: Antimicrobial activity against multidrug-resistant Pseudomonas aeruginosa 119 assessed as inhibition of visible bacterial growth incubated for 18 hrs by broth-dilution method; type: functional
[6] = tested on: Pseudomonas aeruginosa; assay: Antimicrobial activity against multidrug-resistant Pseudomonas aeruginosa 085 assessed as inhibition of visible bacterial growth incubated for 18 hrs by broth-dilution method; type: functional
[7] = tested on: Pseudomonas aeruginosa; assay: Antimicrobial activity against multidrug-resistant Pseudomonas aeruginosa 156 assessed as inhibition of visible bacterial growth incubated for 18 hrs by broth-dilution method; type: functional
[8] = tested on: Pseudomonas aeruginosa; assay: Antimicrobial activity against multidrug-resistant Pseudomonas aeruginosa 157 assessed as inhibition of visible bacterial growth incubated for 18 hrs by broth-dilution method; type: functional
[9] = tested on: Pseudomonas aeruginosa; assay: Antimicrobial activity against multidrug-resistant Pseudomonas aeruginosa 061 assessed as inhibition of visible bacterial growth incubated for 18 hrs by broth-dilution method; type: functional
[10] = tested on: Pseudomonas aeruginosa; assay: Antibacterial activity against antibiotics-resistant Pseudomonas aeruginosa […] assessed as reduction in microbial growth; type: functional
[11] = tested on: Staphylococcus aureus; assay: Antimicrobial activity against Staphylococcus aureus ATCC 25923 assessed as inhibition of visible bacterial growth incubated for 18 hrs by broth-dilution method; type: functional
[12] = tested on: Salmonella typhimurium; assay: Antimicrobial activity against Salmonella typhimurium ATCC 14028 assessed as inhibition of visible bacterial growth incubated for 18 hrs by broth-dilution method; type: functional, Salmonella enterica subsp. enterica serovar Typhimurium; details: Salmonella enterica
[13] = tested on: Pseudomonas aeruginosa; assay: Antimicrobial activity against multidrug-resistant Pseudomonas aeruginosa 516 assessed as inhibition of visible bacterial growth incubated for 18 hrs by broth-dilution method; type: functional
[14] = tested on: Staphylococcus epidermidis; assay: Antimicrobial activity against Staphylococcus epidermidis ATCC 12228 assessed as inhibition of visible bacterial growth incubated for 18 hrs by broth-dilution method; type: functional
[15] = tested on: Pseudomonas aeruginosa; assay: Antimicrobial activity against Pseudomonas aeruginosa ATCC 27853 assessed as inhibition of visible bacterial growth incubated for 18 hrs by broth-dilution method; type: functional
[16] = tested on: Bacillus subtilis; assay: Antimicrobial activity against Bacillus subtilis ATCC 23857 assessed as inhibition of visible bacterial growth incubated for 18 hrs by broth-dilution method; type: functional
[17] = tested on: Pseudomonas aeruginosa; assay: Antimicrobial activity against multidrug-resistant Pseudomonas aeruginosa 073 assessed as inhibition of visible bacterial growth incubated for 18 hrs by broth-dilution method; type: functional
[18] = tested on: Escherichia coli; assay: Antimicrobial activity against Escherichia coli ATCC 25922 assessed as inhibition of visible bacterial growth incubated for 18 hrs by broth-dilution method; type: functional
[19] = tested on: Pseudomonas aeruginosa; assay: Antibacterial activity against Pseudomonas aeruginosa ATCC 27853 infected in C57BL/6 mouse pneumonia model assessed as log reduction in bacterial load in lung at 5 mg/kg, ip administered for 1 to 48 hrs and measured after 3 days; type: functional; details: time 1-120 hrs
[20] = tested on: Acinetobacter baumannii; assay: Antimicrobial activity against Acinetobacter baumannii ATCC 19606 assessed as inhibition of visible bacterial growth incubated for 18 hrs by broth-dilution method; type: functional
[21] = tested on: Staphylococcus aureus; assay: Antimicrobial activity against methicillin-resistant Staphylococcus aureus ATCC 33591 assessed as inhibition of visible bacterial growth incubated for 18 hrs by broth-dilution method; type: functional
[22] = tested on: Staphylococcus aureus; assay: Antimicrobial activity against methicillin-resistant Staphylococcus aureus 5 assessed as inhibition of visible bacterial growth incubated for 18 hrs by broth-dilution method; type: functional
[23] = tested on: Staphylococcus aureus; assay: Antimicrobial activity against methicillin-resistant Staphylococcus aureus 4 assessed as inhibition of visible bacterial growth incubated for 18 hrs by broth-dilution method; type: functional
[24] = tested on: Staphylococcus aureus; assay: Antimicrobial activity against methicillin-resistant Staphylococcus aureus 3 assessed as inhibition of visible bacterial growth incubated for 18 hrs by broth-dilution method; type: functional
[25] = tested on: Staphylococcus aureus; assay: Antimicrobial activity against methicillin-resistant Staphylococcus aureus 2 assessed as inhibition of visible bacterial growth incubated for 18 hrs by broth-dilution method; type: functional
[26] = tested on: Staphylococcus aureus; assay: Antimicrobial activity against methicillin-resistant Staphylococcus aureus 6 assessed as inhibition of visible bacterial growth incubated for 18 hrs by broth-dilution method; type: functional
[27] = tested on: Staphylococcus aureus; assay: Antimicrobial activity against methicillin-resistant Staphylococcus aureus 10 assessed as inhibition of visible bacterial growth incubated for 18 hrs by broth-dilution method; type: functional
[28] = tested on: Staphylococcus aureus; assay: Antimicrobial activity against methicillin-resistant Staphylococcus aureus 1 assessed as inhibition of visible bacterial growth incubated for 18 hrs by broth-dilution method; type: functional
[29] = tested on: Staphylococcus aureus; assay: Antimicrobial activity against methicillin-resistant Staphylococcus aureus 9 assessed as inhibition of visible bacterial growth incubated for 18 hrs by broth-dilution method; type: functional
[30] = tested on: Staphylococcus aureus; assay: Antimicrobial activity against methicillin-resistant Staphylococcus aureus 8 assessed as inhibition of visible bacterial growth incubated for 18 hrs by broth-dilution method; type: functional
[31] = tested on: Staphylococcus aureus; assay: Antimicrobial activity against methicillin-resistant Staphylococcus aureus 7 assessed as inhibition of visible bacterial growth incubated for 18 hrs by broth-dilution method; type: functional
[32] = tested on: Erythrocyte; assay: Hemolytic activity against mouse Red blood cell incubated for 1 hr; type: toxicity, cell-based
[33] = tested on: Staphylococcus aureus; assay: Antimicrobial activity against Staphylococcus aureus ATCC 25923 assessed as fold change in MIC in presence of salt solution; type: functional
[34] = Stability in human serum assessed as half life measured for 5 hrs by RP-HPLC analysis; type: ADME, cell-free
[35] = tested on: Staphylococcus aureus; assay: Antimicrobial activity against Staphylococcus aureus ATCC 25923 assessed as reduction in bacterial growth in presence of Ca2+; type: functional

| SMILES | MIC [1] [µg/mL] | MIC [2] [µg/mL] | MIC [3] [µg/mL] | MIC [4] [µg/mL] | MIC [5] [µg/mL] | MIC [6] [µg/mL] | MIC [7] [µg/mL] | MIC [8] [µg/mL] | MIC [9] [µg/mL] | MIC [10] [µg/mL] | MIC [11] [µg/mL] | MIC [12] [µg/mL] | MIC [13] [µg/mL] | MIC [14] [µg/mL] | MIC [15] [µg/mL] | MIC [16] [µg/mL] | MIC [17] [µg/mL] | MIC [18] [µg/mL] | MIC [20] [µg/mL] | MIC [21] [µg/mL] | other results |
| --- | --- | --- | --- | --- | --- | --- | --- | --- | --- | --- | --- | --- | --- | --- | --- | --- | --- | --- | --- | --- | --- |
| C[C@H]1[C@H](NC(=O)/C(=N\OC(C)(C)C(=O)O)c2csc(N)n2)C(=O)N1S(=O)(=O)O [AZTREONAM] | 4 (≈ 9.19 µM) | 32 | 8 (≈ 18.4 µM) | 8 (≈ 18.4 µM) | 8 (≈ 18.4 µM) | 8 (≈ 18.4 µM) | 256 (≈ 588 µM) | 8 (≈ 18.4 µM) | 256 (≈ 588 µM) | 32 | – | – | – | – | – | – | – | – | – | – | – |
| CC(C)(O/N=C(\C(=O)N[C@@H]1C(=O)N2C(C(=O)[O-])=C(C[n+]3ccccc3)CS[C@H]12)c1csc(N)n1)C(=O)O [CEFTAZIDIME] | 256 (≈ 468 µM) | 32 | 2 (≈ 3.66 µM) | 1 (≈ 1.83 µM) | 1 (≈ 1.83 µM) | 1 (≈ 1.83 µM) | 256 (≈ 468 µM) | 1 (≈ 1.83 µM) | 1 (≈ 1.83 µM) | 32 | 4 (≈ 7.32 µM) | 256 (≈ 468 µM) | 1 (≈ 1.83 µM) | 256 (≈ 468 µM) | 1 (≈ 1.83 µM) | 8 (≈ 14.6 µM) | 1 (≈ 1.83 µM) | 1 (≈ 1.83 µM) | 4 (≈ 7.32 µM) | 258 (≈ 472 µM) | log(activity) [19]: 4.75 |
| C[C@@H](O)[C@H]1C(=O)N2C(C(=O)O)=C(SCCNC=N)C[C@H]12 [IMIPENEM ANHYDROUS] | 4 (≈ 13.4 µM) | 32 | 8 (≈ 26.7 µM) | 8 (≈ 26.7 µM) | 2 (≈ 6.68 µM) | 8 (≈ 26.7 µM) | 4 (≈ 13.4 µM) | 2 (≈ 6.68 µM) | 2 (≈ 6.68 µM) | 32 | 1 (≈ 3.34 µM) | 1 (≈ 3.34 µM) | 4 (≈ 13.4 µM) | 1 (≈ 3.34 µM) | 2 (≈ 6.68 µM) | 1 (≈ 3.34 µM) | 4 (≈ 13.4 µM) | 1 (≈ 3.34 µM) | 1 (≈ 3.34 µM) | 32 (≈ 107 µM) | MIC [22]: 1 µg/mL (≈ 3.34 µM); MIC [23]: 1 µg/mL (≈ 3.34 µM); MIC [24]: 1 µg/mL (≈ 3.34 µM); MIC [25]: 1 µg/mL (≈ 3.34 µM); MIC [26]: 1 µg/mL (≈ 3.34 µM); MIC [27]: 1 µg/mL (≈ 3.34 µM); MIC [28]: 1 µg/mL (≈ 3.34 µM); MIC [29]: 1 µg/mL (≈ 3.34 µM); MIC [30]: 1 µg/mL (≈ 3.34 µM); MIC [31]: 1 µg/mL (≈ 3.34 µM) |
| CC(C)C[C@@H](CN(CC(N)=O)S(=O)(=O)c1cc(C(F)(F)F)cc(C(F)(F)F)c1)NC(=O)[C@H](CCCCN)NC(=O)[C@H](CCCCN)NC(=O)[C@H](CC(C)C)NC(=O)[C@H](CC(C)C)NC(=O)[C@H](CCCCN)NC(=O)[C@H](CC(C)C)NC(=O)[C@@H](N)Cc1ccccc1 (H-FLKLLKK-X6) | – | – | – | – | – | – | – | – | – | – | 8 (≈ 6.06 µM) | 8 (≈ 6.06 µM) | – | 16 (≈ 12.1 µM) | 8 (≈ 6.06 µM) | 16 (≈ 12.1 µM) | – | 8 (≈ 6.06 µM) | 8 (≈ 6.06 µM) | 4 (≈ 3.03 µM) | MHC [32]: 128 µg/mL; fold change (FC) [33]: 0.25; half-life [34]: 2.24 h; MIC [35]: 32 µg/mL |
